Measurements published in patent publication US7867993B2, “Preparation containing oxidized flavonoid derivatives” (Merck Patent GmbH, priority 2005, dated 2011).
≈ marks a conversion by molar mass, not a printed value. Read-outs that look alike come from different tables or passages of the source.

Assays:
[1] = Solubility in water and in ethanol; type: physicochemical
From the text: The solubilities of quercetin in water and in ethanol are, by contrast, only 0.04 g/l and 15.8 g/l respectively.

[2] = compared with the other investigated hydroxyflavones, over the entire pH range; cited from earlier work

| SMILES | solubility ([1]; 25 °C, organic solvent or mixture) [mg/mL] | solubility ([1]; 25 °C, water) [mg/mL] | solubility ([1]; organic solvent or mixture, at 25° C. in ethanol, read-out: solubility in ethanol) [mg/mL] | antioxidative action [2] |
| --- | --- | --- | --- | --- |
| CCCCOC1(c2ccc(O)c(O)c2)Oc2cc(O)cc(O)c2C(=O)C1(O)O (stereo not shown) [2-butoxy-2-(3,4-dihydroxyphenyl)-3,3,5,7-tetrahydroxychroman-4-one] | 855 (≈ 2180 mM) | 2.9 (≈ 7.39 mM) | – | – |
| O=c1c(O)c(-c2ccc(O)c(O)c2)oc2cc(O)cc(O)c12 [quercetin, 3,3′,4′,5,7-pentahydroxyflavone] | – | – | 15.8 (≈ 52.3 mM) | highest activity |
